Laboratory results published in patent US20250230193A1, “CYCLIC COMPOUND HAVING SELECTIVE KRAS INHIBITORY EFFECT ON HRAS AND NRAS” (CHUGAI SEIYAKU KABUSHIKI KAISHA, priority 2022, published 2025).

Assays:
[1] = target: GDP-bound NRAS wild-type protein (Homo sapiens, UniProt P01111); test: Binding to NRAS by surface plasmon resonance (SPR), Single Cycle Kinetics; details: KD ratio NRAS/KRAS, SPR
[2] = target: GDP-bound HRAS wild-type protein (Homo sapiens, UniProt P01112); test: Binding to HRAS by surface plasmon resonance (SPR), Single Cycle Kinetics; details: KD ratio HRAS/KRAS, SPR
GDP-bound HRAS wild-type protein, sequence (P01112 whole entry): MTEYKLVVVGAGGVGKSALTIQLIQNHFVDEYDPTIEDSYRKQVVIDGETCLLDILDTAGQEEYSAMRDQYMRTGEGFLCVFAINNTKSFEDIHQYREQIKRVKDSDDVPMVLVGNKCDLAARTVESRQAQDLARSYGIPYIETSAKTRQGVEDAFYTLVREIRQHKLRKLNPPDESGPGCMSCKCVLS

GDP-bound NRAS wild-type protein, sequence (P01111 whole entry): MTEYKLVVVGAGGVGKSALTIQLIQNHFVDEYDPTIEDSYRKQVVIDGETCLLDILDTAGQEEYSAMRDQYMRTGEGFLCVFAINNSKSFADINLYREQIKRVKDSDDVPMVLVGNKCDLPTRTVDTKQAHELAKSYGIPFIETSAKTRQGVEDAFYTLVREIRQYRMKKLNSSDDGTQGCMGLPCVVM

Structure (SMILES)	NRAS/KRAS (ratio of KD value with respect to GDP-bound NRAS wild-type protein to KD value with respect to KRAS) [1]	HRAS/KRAS (ratio of KD value with respect to GDP-bound HRAS wild-type protein to KD value with respect to KRAS) [2]
CCO[C@@H]1C[C@H]2C(=O)NC3(CCC3)C(=O)N(C)[C@@H](C3CCCC3)C(=O)N(CC)[C@H](C(=O)N(C)C)CC(=O)N(C)[C@@H](CC)C(=O)N[C@@H]([C@@H](C)CC)C(=O)N(C)CC(=O)N(C)[C@H]3CCCCN(C3=O)[C@@H](Cc3ccc(C(F)(F)F)cc3)C(=O)N(C)CC(=O)N[C@@H](CCc3cc(F)c(C(F)(F)F)c(F)c3)C(=O)N2C1 [PP0643]	C (A compound having a KD ratio of 0.1 or more and less than 3 is denoted as C)	B (a compound having 3 or more and less than 10 is denoted as B)
CCCN1C(=O)[C@H](C2CCCC2)N(C)C(=O)C2(CCC2)NC(=O)[C@@H]2C[C@@H](OCC)CN2C(=O)[C@H](CCc2cc(F)c(C(F)(F)F)c(F)c2)NC(=O)CN(C)C(=O)[C@H](Cc2ccc(C(F)(F)F)cc2)N2CCCC[C@@H](C2=O)N(C)C(=O)CN(C)C(=O)[C@H]([C@@H](C)CC)NC(=O)[C@H](CC)N(C)C(=O)C[C@H]1C(=O)N(C)C [PP0644]	C (A compound having a KD ratio of 0.1 or more and less than 3 is denoted as C)	B (a compound having 3 or more and less than 10 is denoted as B)
CCO[C@@H]1C[C@H]2C(=O)NC3(CCC3)C(=O)N(C)[C@@H](C3CCCC3)C(=O)N(CCC3CCC3)[C@H](C(=O)N(C)C)CC(=O)N(C)[C@@H](CC)C(=O)N[C@@H]([C@@H](C)CC)C(=O)N(C)CC(=O)N(C)[C@H]3CCCCN(C3=O)[C@@H](Cc3ccc(C(F)(F)F)cc3)C(=O)N(C)CC(=O)N[C@@H](CCc3cc(F)c(C(F)(F)F)c(F)c3)C(=O)N2C1 [PP0645]	B (a compound having 3 or more and less than 10 is denoted as B)	B (a compound having 3 or more and less than 10 is denoted as B)
CCO[C@@H]1C[C@H]2C(=O)NC3(CCC3)C(=O)N(C)[C@@H](C3CCCC3)C(=O)N(CCC3CCCC3)[C@H](C(=O)N(C)C)CC(=O)N(C)[C@@H](CC)C(=O)N[C@@H]([C@@H](C)CC)C(=O)N(C)CC(=O)N(C)[C@H]3CCCCN(C3=O)[C@@H](Cc3ccc(C(F)(F)F)cc3)C(=O)N(C)CC(=O)N[C@@H](CCc3cc(F)c(C(F)(F)F)c(F)c3)C(=O)N2C1 [PP0646]	C (A compound having a KD ratio of 0.1 or more and less than 3 is denoted as C)	B (a compound having 3 or more and less than 10 is denoted as B)
CCO[C@@H]1C[C@H]2C(=O)NC3(CCC3)C(=O)N(C)[C@@H](C3CCCC3)C(=O)N(CCc3ccccc3)[C@H](C(=O)N(C)C)CC(=O)N(C)[C@@H](CC)C(=O)N[C@@H]([C@@H](C)CC)C(=O)N(C)CC(=O)N(C)[C@H]3CCCCN(C3=O)[C@@H](Cc3ccc(C(F)(F)F)cc3)C(=O)N(C)CC(=O)N[C@@H](CCc3cc(F)c(C(F)(F)F)c(F)c3)C(=O)N2C1 [PP0647]	C (A compound having a KD ratio of 0.1 or more and less than 3 is denoted as C)	B (a compound having 3 or more and less than 10 is denoted as B)
CCO[C@@H]1C[C@H]2C(=O)NC3(CCC3)C(=O)N(C)[C@@H](C3CCCC3)C(=O)N(CC)[C@H](C(=O)N3CCOCC3)CC(=O)N(C)[C@@H](CC(C)C)C(=O)N[C@@H]([C@@H](C)CC)C(=O)N(C)CC(=O)N(C)[C@H]3CCCCN(C3=O)[C@@H](Cc3ccc(C(F)(F)F)cc3)C(=O)N(C)CC(=O)N[C@@H](CCc3cc(F)c(C(F)(F)F)c(F)c3)C(=O)N2C1 [PP0648]	B (a compound having 3 or more and less than 10 is denoted as B)	B (a compound having 3 or more and less than 10 is denoted as B)
CCCN1C(=O)[C@H](C2CCCC2)N(C)C(=O)C2(CCC2)NC(=O)[C@@H]2C[C@@H](OCC)CN2C(=O)[C@H](CCc2cc(F)c(C(F)(F)F)c(F)c2)NC(=O)CN(C)C(=O)[C@H](Cc2ccc(C(F)(F)F)cc2)N2CCCC[C@@H](C2=O)N(C)C(=O)CN(C)C(=O)[C@H]([C@@H](C)CC)NC(=O)[C@H](CC(C)C)N(C)C(=O)C[C@H]1C(=O)N1CCOCC1 [PP0649]	C (A compound having a KD ratio of 0.1 or more and less than 3 is denoted as C)	B (a compound having 3 or more and less than 10 is denoted as B)
CCO[C@@H]1C[C@H]2C(=O)NC3(CCC3)C(=O)N(C)[C@@H](C3CCCC3)C(=O)N(CCC3CCC3)[C@H](C(=O)N3CCOCC3)CC(=O)N(C)[C@@H](CC(C)C)C(=O)N[C@@H]([C@@H](C)CC)C(=O)N(C)CC(=O)N(C)[C@H]3CCCCN(C3=O)[C@@H](Cc3ccc(C(F)(F)F)cc3)C(=O)N(C)CC(=O)N[C@@H](CCc3cc(F)c(C(F)(F)F)c(F)c3)C(=O)N2C1 [PP0650]	C (A compound having a KD ratio of 0.1 or more and less than 3 is denoted as C)	B (a compound having 3 or more and less than 10 is denoted as B)
CCO[C@@H]1C[C@H]2C(=O)NC3(CCC3)C(=O)N(C)[C@@H](C3CCCC3)C(=O)N(CCC3CCCC3)[C@H](C(=O)N3CCOCC3)CC(=O)N(C)[C@@H](CC(C)C)C(=O)N[C@@H]([C@@H](C)CC)C(=O)N(C)CC(=O)N(C)[C@H]3CCCCN(C3=O)[C@@H](Cc3ccc(C(F)(F)F)cc3)C(=O)N(C)CC(=O)N[C@@H](CCc3cc(F)c(C(F)(F)F)c(F)c3)C(=O)N2C1 [PP0651]	B (a compound having 3 or more and less than 10 is denoted as B)	B (a compound having 3 or more and less than 10 is denoted as B)
CCO[C@@H]1C[C@H]2C(=O)NC3(CCC3)C(=O)N(C)[C@@H](C3CCCC3)C(=O)N(CCc3ccccc3)[C@H](C(=O)N3CCOCC3)CC(=O)N(C)[C@@H](CC(C)C)C(=O)N[C@@H]([C@@H](C)CC)C(=O)N(C)CC(=O)N(C)[C@H]3CCCCN(C3=O)[C@@H](Cc3ccc(C(F)(F)F)cc3)C(=O)N(C)CC(=O)N[C@@H](CCc3cc(F)c(C(F)(F)F)c(F)c3)C(=O)N2C1 [PP0652]	B (a compound having 3 or more and less than 10 is denoted as B)	B (a compound having 3 or more and less than 10 is denoted as B)
CC[C@H](C)[C@@H]1NC(=O)[C@H](CC)N(C)C(=O)C[C@@H](C(=O)N(C)C)N(C)C(=O)[C@H](C2CCCC2)N(C)C(=O)C2(CCC2)NC(=O)[C@@H]2CCN2C(=O)[C@H](CCc2cc(F)c(C(F)(F)F)c(F)c2)NC(=O)CN(C)C(=O)[C@H](Cc2ccc(C(F)(F)F)cc2)N2CCCCC[C@@H](C2=O)N(C)C(=O)CN(C)C1=O [PP0654]	B (a compound having 3 or more and less than 10 is denoted as B)	B (a compound having 3 or more and less than 10 is denoted as B)
CC[C@H](C)[C@@H]1NC(=O)[C@H](CC)N(C)C(=O)C[C@@H](C(=O)N(C)C)N(C)C(=O)[C@H](C2CCCC2)N(C)C(=O)C2(CCC2)NC(=O)[C@@H]2CCCCN2C(=O)[C@H](CCc2cc(F)c(C(F)(F)F)c(F)c2)NC(=O)CN(C)C(=O)[C@H](Cc2ccc(C(F)(F)F)cc2)N2CCCCC[C@@H](C2=O)N(C)C(=O)CN(C)C1=O [PP0655]	B (a compound having 3 or more and less than 10 is denoted as B)	B (a compound having 3 or more and less than 10 is denoted as B)
CC[C@H](C)[C@@H]1NC(=O)[C@H](CC)N(C)C(=O)C[C@@H](C(=O)N(C)C)N(C)C(=O)[C@H](C2CCCC2)N(C)C(=O)C2(CCC2)NC(=O)[C@@H]2C[C@@H](N3CCC(F)(F)CC3)CN2C(=O)[C@H](CCc2cc(F)c(C(F)(F)F)c(F)c2)NC(=O)CN(C)C(=O)[C@H](Cc2ccc(C(F)(F)F)cc2)N2CCCC[C@@H](C2=O)N(C)C(=O)CN(C)C1=O [PP0656]	C (A compound having a KD ratio of 0.1 or more and less than 3 is denoted as C)	C (A compound having a KD ratio of 0.1 or more and less than 3 is denoted as C)
CC[C@H](C)[C@@H]1NC(=O)[C@H](CC)N(C)C(=O)C[C@@H](C(=O)N(C)C)N(C)C(=O)[C@H](C2CCCC2)N(C)C(=O)C2(CCC2)NC(=O)[C@@H]2CCN2C(=O)[C@H](CCc2cc(F)c(C(F)(F)F)c(F)c2)NC(=O)CN(C)C(=O)[C@H](Cc2ccc(C(F)(F)F)cc2)N2CCCC[C@@H](C2=O)N(C)C(=O)CN(C)C1=O [PP0657]	B (a compound having 3 or more and less than 10 is denoted as B)	B (a compound having 3 or more and less than 10 is denoted as B)
CC[C@H](C)[C@@H]1NC(=O)[C@H](CC)N(C)C(=O)C[C@@H](C(=O)N(C)C)N(C)C(=O)[C@H](C2CCCC2)N(C)C(=O)C2(CCC2)NC(=O)[C@@H]2CCCCN2C(=O)[C@H](CCc2cc(F)c(C(F)(F)F)c(F)c2)NC(=O)CN(C)C(=O)[C@H](Cc2ccc(C(F)(F)F)cc2)N2CCCC[C@@H](C2=O)N(C)C(=O)CN(C)C1=O [PP0658]	C (A compound having a KD ratio of 0.1 or more and less than 3 is denoted as C)	B (a compound having 3 or more and less than 10 is denoted as B)
